These results are taken from ChEMBL document CHEMBL1141556, “Structural insights into hydroxycoumarin-induced apoptosis in U-937 cells” (Bioorg Med Chem, 2008).

The subject of experiment [1] is U-937. Briefly: Effect on DNA fragmentation in human U937 cells assessed as ladder-like pattern at 2 mM after 24 hrs. Format: functional, cell-based.
The test system of experiment [2] is U-937. Briefly: Induction of apoptosis in human U937 cells at 250 uM after 24 hrs. Format: functional.
Experiment [3] has as its system U-937. Briefly: Cytotoxicity against human U937 cells by trypan blue assay after 48 hrs. Format: functional. The conditions noted are these: U-937, 48 h.
In experiment [4] the test system is U-937. Briefly: Growth inhibition of human U937 cells by [3H]thymidine incorporation assay. The class given is functional, cell-based. A general note: Dividing cells build labelled thymidine or BrdU into new DNA.
The subject of experiment [5] is U-937. Briefly: Induction of DNA fragmentation in human U937 cells at 2 mM after 24 hrs. Format: functional, cell-based.
Experiment [6] deals with U-937. Briefly: Reversal of proapoptotic effect in human U937 cells assessed as inhibition of ladder-like pattern at 250 uM in presence of 10 mM NAC added every 8 hrs for 24 hrs. Format: functional, cell-based.
The test system of experiment [7] is U-937. Briefly: Reversal of induction of apoptosis in human U937 cells at 250 uM in presence of 10 mM NAC added every 8 hrs for 24 hrs. The class given is functional, cell-based.

Values joined by “and” are separate entries in the source; they are usually repeats but may differ in a detail not shown here. Identical values can stand only once. Active and inactive are the calls of the source. No cut-off for these calls is given here. Bounds are passed on as bounds.

Broadly, the CC50 is the concentration that lowers cell viability or growth by half. Low values mean harm at low concentration, high ones better tolerance by the cells. Usually IC50 stands for the concentration that gives 50% inhibition. Higher therefore signals weaker potency in that assay. Consider `Cc1cc(=O)oc2ccc(O)cc12`, for which the result with U-937 [1] was Active. Also, in the experiment on U-937 [2], the Activity worked out at 3%. In the experiment on U-937 [3], this molecule came in with a CC50 of more than 2000 µM. In the experiment with U-937 [4] (Homo sapiens, U-937), this molecule showed an IC50 of 628 µM.

Regarding `O=c1ccc2cc(O)c(O)cc2o1` [ESCULETIN], the Activity in the experiment on U-937 [2] came out at 54.3%. Further, it took 194 µM to reach half-maximal cytotoxicity in the experiment with U-937 [3] (CC50). Moreover, the IC50 in the experiment with U-937 [4] (Homo sapiens, U-937) stood at 31.3 µM. For the same molecule, the outcome in the experiment with U-937 [5] was Active.

Consider `Cc1cc(=O)oc2c(C)cccc12`, for which, in the experiment with U-937 [2], the Activity amounted to 4.6%. The molecule also registered a CC50 in the experiment on U-937 [3] of more than 2000 µM. This molecule gave an IC50 with U-937 [4] (Homo sapiens, U-937) of more than 2000 µM.

As to `Cc1cc(=O)oc2cc(O)ccc12` [HYMECROMONE], the outcome with U-937 [1] was Active. In the experiment on U-937 [2], the Activity was 5.2% and 4.7%. Besides, in the experiment on U-937 [3], the CC50 is more than 2000 µM. In the experiment on U-937 [4] (u-937), this molecule returned an IC50 of more than 2000 µM.

Regarding `COc1cc2ccc(=O)oc2cc1O` [SCOPOLETIN], the result in the experiment with U-937 [1] was Active. In the experiment on U-937 [2], this molecule displayed an Activity of 6.3%. The CC50 in the experiment on U-937 [3] was found to be 600 µM. This molecule also had an IC50 with U-937 [4] (Homo sapiens, U-937) of 152 µM.

As for `Cc1ccc2oc(=O)cc(C)c2c1`, the Activity in the experiment with U-937 [2] came to 4.3%. Further, the CC50 in the experiment with U-937 [3] was more than 2000 µM. The molecule also yielded an IC50 in the experiment on U-937 [4] (Homo sapiens, U-937) of more than 2000 µM.

`Cc1cc(=O)oc2c(O)c(O)ccc12` [4-METHYLDAPHNETIN]: the Activity in the experiment on U-937 [2] is listed as 55%. In addition, the result in the experiment on U-937 [6] and with U-937 [7] was Active. In the experiment on U-937 [3], this molecule displayed a CC50 of 165 µM. The same molecule registered an IC50 with U-937 [4] (Homo sapiens, U-937) of 48.6 µM.

Regarding `Cc1ccc2c(C)cc(=O)oc2c1`, the Activity in the experiment with U-937 [2] was determined as 5.3%. The same molecule gave a CC50 in the experiment on U-937 [3] of more than 2000 µM. The molecule also gave an IC50 in the experiment on U-937 [4] (Homo sapiens, U-937) of more than 2000 µM.

In the case of `O=c1ccc2ccccc2o1` [COUMARIN], the Activity with U-937 [2] was 2.6%. The molecule further came in with a CC50 in the experiment on U-937 [3] of more than 2000 µM. The molecule also had an IC50 in the experiment on U-937 [4] (Homo sapiens, U-937) of more than 2000 µM.

Consider `O=c1oc2ccccc2cc1O` [3-HYDROXYCOUMARIN], for which the Activity with U-937 [2] amounted to 5.3%. This molecule came in with a CC50 in the experiment on U-937 [3] of more than 2000 µM. The same molecule gave an IC50 in the experiment with U-937 [4] (Homo sapiens, U-937) of more than 2000 µM.

Take `COc1ccc2c(C)cc(=O)oc2c1` [HYMECROMONE METHYL ETHER]: in the experiment with U-937 [2], the Activity worked out at 4%. The molecule also showed a CC50 in the experiment with U-937 [3] of more than 2000 µM. The molecule also gave an IC50 in the experiment on U-937 [4] (Homo sapiens, U-937) of more than 2000 µM.
